Structures can show the parent of a compound that is named as a salt.

The assay concerns voltage operated calcium channels. Description: Inhibition of potassium (depolarization) stimulated 45Ca uptake into rat cerebral cortex synaptosomes. Type of assay: biochemical, male Wistar rat. The following applies: concentration inhibiting 20% of potassium stimulated 45Ca uptake, corrected for basal uptake, 145 mM KCl, 15 seconds, 37° C. An excerpt:
A high influx of calcium from extracelluar compartments into neurons is seen after opening of voltage operated calcium channels. Such opening of calcium channels may be induced by depolarization of neuronal membranes.
A crude synaptosome preparation contains small vesicles surrounded by neuronal membranes, and it is possible to study an opening of the voltage operated calcium channels in such a preparation.
In the below described test influx of ^45 Ca into synaptosomes is studied under depolarized conditions. The effect of test substances on the depolarization induced calcium uptake can thus be studied.
The cerebral cortex from a male Wistar rat is homogenized in 20 ml ice cold 0.32M saccharose. In the following steps the temperature is kept at 0° C. to 4° C. The homogenate is centrifuged at 1,000×g for 10 minutes and the supernatant recentrifuged for 20 minutes at 18,000×g. […]
The ^45 Ca uptake is stopped by filtering through glass fibre filters, which are subsequently washed 3 times with an ice cold solution of 145 mM KCl, 7 mM EGTA and 20 mM Tris HCl, pH 7.4 (5. ml). The radioactivity on the filters are measured by liquid scintillation spectrometry. […]
The test value is given as IC20, that is the concentration in μM of the test substances, which inhibit 20% of the potassium stimulated uptake of ^45 Ca. […] The IC20 value is determined from a dose response curve.

For `c1ccc(CN2CCN=C2CN(Cc2ccccc2)c2ccccc2)cc1` [1-benzyl-2-(N-phenyl-N-benzyl-methanamine)-4,5-dihydro-imidazole, hydrochloride], the IC20 was 400 nM.

Take `O=C(c1ccccc1)C(c1ccccc1)N1CCN=C1CN(Cc1ccccc1)c1ccccc1` (stereo not drawn) [1-(α-Benzoylbenzyl)-2-(N-phenyl-N-(benzyl)-methanamine)-4,5-dihydro-imidazole]: the IC20 is 400 nM.

Values taken from US5296493A, “1-substituted-2-(N-pheny l-N-(phenylmethyl)methanamine)-4,5-dihydro-imidazoles and related compounds and their use in treating calcium overload in brain cells” (NeuroSearch A/S, priority 1991, dated 1994).
